“And” between values parts separate entries of the source, which are not always exact repeats. Equal entries are not always repeated. Inconclusive results and toxic doses are left out. The calls were made as follows: active = survival T/C of 150% or more; inactive = T/C below 125% in these data.
Test system: BDF1 mice, B16 melanoma ip, median survival T/C
Test: NCI In Vivo Anticancer Drug Screen. Data for tumor model B16 Melanoma (intraperitoneal) in B6D2F1 (BDF1) mice
Settings: endpoint: median survival time, higher = longer survival
In short: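 Tumor-bearing mice received test compound or vehicle. Survival or tumor size was then measured in both groups. The treated-group figure was divided by the control-group figure.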

[1] = dose: 12.5 mg/kg/injection, schedule: Q01DX009 (ip), vehicle: saline
[2] = dose: 25.0 mg/kg/injection, schedule: Q01DX009 (ip), vehicle: saline
[3] = dose: 50.0 mg/kg/injection, schedule: Q01DX009 (ip), vehicle: saline
[4] = dose: 100.0 mg/kg/injection, schedule: Q01DX009 (ip), vehicle: saline
[5] = dose: 200.0 mg/kg/injection, schedule: Q01DX009 (ip), vehicle: saline
[6] = dose: 50.0 mg/kg/injection, schedule: Q01DX009 (ip), vehicle: Klucel (hydroxypropylcellulose) (HPC)
[7] = dose: 100.0 mg/kg/injection, schedule: Q01DX009 (ip), vehicle: Klucel (hydroxypropylcellulose) (HPC)
[8] = dose: 200.0 mg/kg/injection, schedule: Q01DX009 (ip), vehicle: Klucel (hydroxypropylcellulose) (HPC)
[9] = dose: 12.5 mg/kg/injection, schedule: Q01DX009 (ip), vehicle: Klucel (hydroxypropylcellulose) (HPC)
[10] = dose: 37.5 mg/kg/injection, schedule: Q01DX009 (ip), vehicle: saline with Tween-80
[11] = dose: 75.0 mg/kg/injection, schedule: Q01DX009 (ip), vehicle: saline with Tween-80
[12] = dose: 25.0 mg/kg/injection, schedule: Q01DX009 (ip), vehicle: Klucel (hydroxypropylcellulose) (HPC)
[13] = dose: 12.5 mg/kg/injection, schedule: Q01DX009 (ip), vehicle: saline with Tween-80
[14] = dose: 25.0 mg/kg/injection, schedule: Q01DX009 (ip), vehicle: saline with Tween-80
[15] = dose: 100.0 mg/kg/injection, schedule: Q01DX009 (ip), vehicle: saline with Tween-80
[16] = dose: 200.0 mg/kg/injection, schedule: Q01DX009 (ip), vehicle: saline with Tween-80
[17] = dose: 400.0 mg/kg/injection, schedule: Q01DX009 (ip), vehicle: saline with Tween-80
[18] = dose: 6.25 mg/kg/injection, schedule: Q01DX009 (ip), vehicle: saline with Tween-80
[19] = dose: 6.25 mg/kg/injection, schedule: Q01DX009 (ip), vehicle: Klucel (hydroxypropylcellulose) (HPC)

Measured: T/C

COC(=O)CC(N)C(=O)O (stereo not given)
inactive: [1] 101 % of control | [2] 103 % of control | [3] 113 % of control | [4] 104 % of control | [5] 89 % of control

O=C1c2ccccc2CC12OC2c1ccccc1 (stereo not given)
inactive: [6] 94 % of control | [7] 90 % of control | [8] 103 % of control | dose: 400.0 mg/kg/injection, schedule: Q01DX009 (ip), vehicle: Klucel (hydroxypropylcellulose) (HPC) 96 % of control

O=[N+]([O-])c1ccc(C2OC2c2ccccc2)cc1 (stereo not given)
inactive: dose: 9.38 mg/kg/injection, schedule: Q01DX009 (ip), vehicle: saline with Tween-80 100 % of control | [9] 103 % of control | dose: 18.7 mg/kg/injection, schedule: Q01DX009 (ip), vehicle: saline with Tween-80 105 % of control | [10] 97 % of control | [6] 100 % of control | [11] 102 % of control | dose: 150.0 mg/kg/injection, schedule: Q01DX009 (ip), vehicle: saline with Tween-80 97 % of control

CC(O)C1(O)C(O)CC(OC2c3cc4c(c(O)c3[C@@H]3C[C@@]2(C)OC32C=c3cc[nH]c3=N2)C(=O)c2cccc(O)c2C4=O)OC1C (stereo not given in full)
inactive: dose: 0.5 mg/kg/injection, schedule: Q01DX009 (ip), vehicle: saline with Tween-80 97 % of control | dose: 1.0 mg/kg/injection, schedule: Q01DX009 (ip), vehicle: saline with Tween-80 112 % of control | dose: 2.0 mg/kg/injection, schedule: Q01DX009 (ip), vehicle: saline with Tween-80 109 % of control | dose: 4.0 mg/kg/injection, schedule: Q01DX009 (ip), vehicle: saline with Tween-80 117 % of control | dose: 8.0 mg/kg/injection, schedule: Q01DX009 (ip), vehicle: saline with Tween-80 115 % of control | dose: 16.0 mg/kg/injection, schedule: Q01DX009 (ip), vehicle: saline with Tween-80 124 % of control

Cc1cc(C)c(NC(=O)Nc2cccc3ccccc23)c(C)c1
inactive: [12] 91 % of control | [6] 95 % of control

CCC1(CC)OC2=C(CC(C#N)(C#N)C(C#N)(C#N)C2)O1
inactive: dose: 2.5 mg/kg/injection, schedule: Q04DX003 (ip), vehicle: Klucel (hydroxypropylcellulose) (HPC) 96 % of control | dose: 3.12 mg/kg/injection, schedule: Q04DX003 (ip), vehicle: Klucel (hydroxypropylcellulose) (HPC) 100 % of control | dose: 4.0 mg/kg/injection, schedule: Q04DX003 (ip), vehicle: Klucel (hydroxypropylcellulose) (HPC) 98 % of control | dose: 9.5 mg/kg/injection, schedule: Q04DX003 (ip), vehicle: Klucel (hydroxypropylcellulose) (HPC) 96 % of control | dose: 12.5 mg/kg/injection, schedule: Q04DX003 (ip), vehicle: Klucel (hydroxypropylcellulose) (HPC) 88 % of control

CN(C)CCOc1ccccc1Cc1ccccc1
inactive: [1] 121 % of control | [2] 106 % of control and 107 % of control | [3] 95 % of control and 100 % of control | [4] 105 % of control | [5] 94 % of control

COC(=O)C1(C)CCC(c2ccc(OC)cc2)CC1=O (stereo not given)
inactive: [6] 90 % of control | [8] 87 % of control

C1CCN(CCC2CCNCC2)C1
inactive: [2] 109 % of control | [3] 90 % of control

O=[N+]([O-])c1cc(Cl)cc2c1nc(NCCO)c1ccccc12
inactive: [13] 97 % of control | [14] 97 % of control

Nc1ccc(OS(=O)(=O)c2ccccc2)cc1
inactive: dose: 50.0 mg/kg/injection, schedule: Q01DX009 (ip), vehicle: saline with Tween-80 97 % of control | [15] 100 % of control | [16] 101 % of control | [17] 90 % of control

COc1cccc(/C=C/[N+](=O)[O-])c1
inactive: dose: 5.0 mg/kg/injection, schedule: Q01DX009 (ip), vehicle: saline with Tween-80 98 % of control | dose: 10.0 mg/kg/injection, schedule: Q01DX009 (ip), vehicle: saline with Tween-80 101 % of control | dose: 20.0 mg/kg/injection, schedule: Q01DX009 (ip), vehicle: saline with Tween-80 94 % of control and 98 % of control

CC(=O)NCc1cc(CNC(C)=O)c(C)cc1C
inactive: [15] 88 % of control | [16] 86 % of control

CN(C)CCC1CCCCN1 (stereo not given)
inactive: [2] 112 % of control | [3] 100 % of control | [4] 100 % of control

O=CCC(O)C(O)C(O)CO (stereo not given)
inactive: dose: 300.0 mg/kg/injection, schedule: Q01DX009 (ip), vehicle: suspension in saline 104 % of control | dose: 600.0 mg/kg/injection, schedule: Q01DX009 (ip), vehicle: suspension in saline 100 % of control | dose: 1200.0 mg/kg/injection, schedule: Q01DX009 (ip), vehicle: suspension in saline 100 % of control | dose: 1800.0 mg/kg/injection, schedule: Q01DX009 (ip), vehicle: suspension in saline 101 % of control

CP(=S)(c1ccccc1)P(C)(=S)c1ccccc1 (stereo not given)
inactive: [8] 119 % of control

CN1c2c(nc(N)[nH]c2=O)NCC1CCNc1ccc(C(=O)NC(CCC(=O)O)C(=O)O)cc1 (stereo not given)
inactive: [12] 106 % of control | [6] 103 % of control | dose: 50.0 mg/kg/injection, schedule: Q01DX009 (ip), vehicle: sodium bicarbonate 100 % of control | [7] 106 % of control | dose: 100.0 mg/kg/injection, schedule: Q01DX009 (ip), vehicle: sodium bicarbonate 100 % of control | dose: 200.0 mg/kg/injection, schedule: Q01DX009 (ip), vehicle: sodium bicarbonate 95 % of control | dose: 400.0 mg/kg/injection, schedule: Q01DX009 (ip), vehicle: sodium bicarbonate 118 % of control

Cc1ccc(NC(=O)Nc2ccc(C)c(NC(=O)Nc3ccc(C)c(Cl)c3)c2)cc1Cl
inactive: [18] 99 % of control | [13] 90 % of control | [14] 99 % of control

CC12C=CC(CC1)C2OC(=O)c1ccccc1C(=O)O (stereo not given)
inactive: [9] 108 % of control | [6] 94 % of control | [7] 100 % of control | [8] 94 % of control

Clc1ccc2c(c1)C([P+](c1ccccc1)(c1ccccc1)c1ccccc1)c1cc(Cl)cc(Cl)c1-2 (stereo not given)
inactive: [15] 89 % of control | [16] 95 % of control | [17] 89 % of control

CCOc1c(Br)cc(Br)cc1C=C(C#N)C#N
inactive: dose: 12.5 mg/kg/injection, schedule: Q01DX009 (ip), vehicle: other 103 % of control | dose: 25.0 mg/kg/injection, schedule: Q01DX009 (ip), vehicle: other 98 % of control | dose: 50.0 mg/kg/injection, schedule: Q01DX009 (ip), vehicle: other 109 % of control

CC(C)(SCCc1ccc([N+](=O)[O-])cc1)C(N)C(=O)O (stereo not given)
inactive: [19] 88 % of control

Clc1ccc2c(c1)C(Nc1cc3c4ccccc4ccc3c3ccccc13)c1cc(Cl)cc(Cl)c1-2 (stereo not given)
inactive: [18] 86 % of control

NC(=O)CCCN1CCCC1=O
inactive: dose: 100.0 mg/kg/injection, schedule: Q04DX003 (ip), vehicle: saline 106 % of control | dose: 200.0 mg/kg/injection, schedule: Q04DX003 (ip), vehicle: saline 109 % of control | dose: 400.0 mg/kg/injection, schedule: Q04DX003 (ip), vehicle: saline 106 % of control

COc1ccc2nc3cc(Cl)ccc3c(NCCO)c2c1
inactive: [10] 104 % of control | [11] 106 % of control

Nc1c(Cl)c(Cl)nc(C(=O)O)c1Cl
inactive: [19] 96 % of control | [9] 108 % of control | [12] 108 % of control | dose: 25.0 mg/kg/injection, schedule: Q02DX009 (ip), vehicle: Klucel (hydroxypropylcellulose) (HPC) 95 % of control | [6] 96 % of control | dose: 50.0 mg/kg/injection, schedule: Q02DX009 (ip), vehicle: Klucel (hydroxypropylcellulose) (HPC) 91 % of control | dose: 50.0 mg/kg/injection, schedule: Q02DX009 (ip), vehicle: other 95 % of control | [7] 102 % of control | dose: 100.0 mg/kg/injection, schedule: Q02DX009 (ip), vehicle: other 86 % of control | [8] 98 % of control

COc1cc(OC)c2c(O)c3c(c(-c4ccc5cc6c(c(O)c5c4O)C(=O)CC(C)(O)C6)c2c1)CC(C)OC3C (stereo not given)
inactive: dose: 0.5 mg/kg/injection, schedule: Q01DX009 (ip), vehicle: Klucel (hydroxypropylcellulose) (HPC) 94 % of control | dose: 1.0 mg/kg/injection, schedule: Q01DX009 (ip), vehicle: Klucel (hydroxypropylcellulose) (HPC) 102 % of control | dose: 2.0 mg/kg/injection, schedule: Q01DX009 (ip), vehicle: Klucel (hydroxypropylcellulose) (HPC) 111 % of control

NC(=O)Nc1ccccc1
inactive: [4] 97 % of control | [5] 100 % of control | dose: 400.0 mg/kg/injection, schedule: Q01DX009 (ip), vehicle: saline 104 % of control
